From paper PMC8161026, “Synthesis and Anticancer Activity Evaluation of 5-[2-Chloro-3-(4-nitrophenyl)-2-propenylidene]-4-thiazolidinones” (Molecules, 2021)
Like-named read-outs stand apart in the source and are kept apart here.

Tests used:
A549/ATCC = assay: cells; conditions: Homo sapiens, A549, 48 h; for CC50: read-out: LC50
RPMI-8226 = assay: cells; conditions: Homo sapiens, RPMI-8226, 48 h; for CC50: read-out: LC50
SNB-19 = assay: NCI DTP 60 cell line screen, SRB; conditions: for GI50 / CC50: Homo sapiens, SNB-19, 48 h; for CC50: read-out: LC50; for TGI: SNB-19 (CNS Cancer), 48 h, SRB
HOP-62 [1] = assay: cells; conditions: Homo sapiens, HOP-62, 48 h; for CC50: read-out: LC50
MALME-3M = assay: NCI DTP 60 cell line screen, SRB; conditions: 48 h; for GI50 / CC50: Homo sapiens, Malme-3M; for CC50: read-out: LC50; for TGI: MALME-3M (Melanoma), SRB
DU-145 = DU-145 (Prostate Cancer), 48 h, SRB
IGROV1 = assay: NCI DTP 60 cell line screen, SRB; conditions: for GI50 / CC50: Homo sapiens, IGROV-1, 48 h; for CC50: read-out: LC50; for TGI: IGROV1 (Ovarian Cancer), 48 h, SRB
MOLT-4 [2] = conditions: for TGI: MOLT-4 (Leukemia), 48 h, SRB
HCT-15 = assay: NCI DTP 60 cell line screen, SRB; conditions: for TGI: HCT-15 (Colon Cancer), 48 h, SRB; for GI50 / CC50: Homo sapiens, HCT-15, 48 h; for CC50: read-out: LC50
SF-295 = assay: NCI DTP 60 cell line screen, SRB; conditions: for GI50 / CC50: Homo sapiens, SF-295, 48 h; for CC50: read-out: LC50; for TGI: SF-295 (CNS Cancer), 48 h, SRB
CCRF-CEM = assay: NCI DTP 60 cell line screen, SRB; conditions: 48 h
SK-MEL-2 [3] = assay: cells; conditions: Homo sapiens, SK-MEL-2, 48 h; for CC50: read-out: LC50
HL-60(TB) = conditions: for TGI: HL-60(TB) (Leukemia), 48 h, SRB
MDA-MB-435 = assay: NCI DTP 60 cell line screen, SRB; conditions: for GI50 / CC50: Homo sapiens, MDA-MB-435, 48 h; for CC50: read-out: LC50; for TGI: MDA-MB-435 (Breast Cancer), 48 h, SRB
SF-268 = assay: NCI DTP 60 cell line screen, SRB; conditions: for GI50 / CC50: Homo sapiens, SF-268, 48 h; for CC50: read-out: LC50; for TGI: SF-268 (CNS Cancer), 48 h, SRB
MOLT-4 [4] = assay: cells; conditions: Homo sapiens, MOLT-4, 48 h; for CC50: read-out: LC50
60 tumor cell lines = assay: NCI60 full panel MG_MID; conditions: for GI50 / CC50: Homo sapiens; for CC50: read-out: 60 lines MG_MID, LC50; for 60 lines MG_MID, TGI: mean over all cell lines
Method: At the first stage of biological activity study, the antitumor activity screening of the selected compounds 2b, 2c, 2f, 2h, and 2j was performed according to the NCI DTP (USA) standard protocol at the concentrations ranging from 10^−4 to 10^−8 M toward 60 tumor cell lines. The percentage of growth was evaluated spectrophotometrically versus controls not treated with test agents after 48 h exposure and using SRB protein assay to estimate cell viability or growth. Dose–response parameters were calculated for each cell line: GI50—molar concentration of the compound that inhibits 50% net cell growth; TGI—molar concentration of the compound leading to the total inhibition; and LC50—molar concentration of the compound leading to 50% net cell death. Furthermore, mean graph midpoints (MG_MID) were calculated for each of the parameters, giving an average activity parameter over all cell lines for the tested compound. For the MG_MID calculation, insensitive cell lines were included with the highest concentration tested.
Primary anticancer assay was performed on a panel of approximately sixty human tumor cell lines derived from nine neoplastic diseases, in accordance with the protocol of the Drug Evaluation Branch, National Cancer Institute, Bethesda. Tested compounds were added to the culture at a single concentration (10^−5 M) and the cultures were incubated for 48 h. End point determinations were made with a protein binding dye, sulforhodamine B (SRB). […] The percentage growth was evaluated spectrophotometrically versus controls not treated with test agents.
Dose–response parameters (GI50, TGI, LC50) were calculated for each compound. […] The drug concentration resulting in total growth inhibition (TGI) was calculated from Ti = Tz. The LC50 (concentration of drug resulting in a 50% reduction in the measured protein at the end of the drug treatment as compared to that at the beginning) indicating a net loss of cells following treatment was calculated from [(Ti − Tz)/Tz] × 100 = −50 (2). Values were calculated for each of these parameters if the level of activity was reached; however, if the effect was not reached or was excessive, the value for that parameter was expressed as more or less than the maximum or minimum concentration tested.

U251 = assay: cells; conditions: Homo sapiens, U-251, 48 h; for CC50: read-out: LC50
HCT-116 = assay: cells; conditions: Homo sapiens, HCT-116, 48 h; for CC50: read-out: LC50
SR = assay: cells; conditions: Homo sapiens, 48 h; for CC50: read-out: LC50
HOP-62 [5] = conditions: HOP-62 (Non-Small Cell Lung Cancer), 48 h, SRB
T-47D = T-47D (Breast Cancer), 48 h, SRB
SK-MEL-2 [6] = conditions: SK-MEL-2 (Melanoma), 48 h, SRB
OVCAR-4 = assay: NCI DTP 60 cell line screen, SRB
[7] = read-out: 60 lines MG_MID, GI50

`O=C1/C(=C/C(Cl)=C/c2ccc([N+](=O)[O-])cc2)SC(=S)N1/N=C\C(Cl)=C\c1ccc([N+](=O)[O-])cc1` [Compound 2c, 5-[(Z,2Z)-2-Chloro-3-(4-nitrophenyl)-2-propenylidene]-3-[(Z,2Z)-2-chloro-3-(4-nitrophenyl)-2-propenylideneamino]-2-thioxo-4-thiazolidinone] was tested, and the GI50 (A549/ATCC) was 18.9 µM, the CC50 (A549/ATCC) was 96.1 µM and the GI50 (RPMI-8226) was 2380 nM. The CC50 (RPMI-8226) was over 100 µM, the GI50 (SNB-19) was 48.3 µM and the CC50 (SNB-19) was over 100 µM. For the same compound, the TGI (SNB-19) was over 100 µM, the GI50 (HOP-62 [1]) was 17.2 µM and the CC50 (HOP-62 [1]) was 91.9 µM. The GI50 (MALME-3M) was 25 µM, the CC50 (MALME-3M) was over 100 µM and the TGI (MALME-3M) was 60.4 µM. The TGI (DU-145) was 52.8 µM, the GI50 (IGROV1) was 13.3 µM and the CC50 (IGROV1) was 58.9 µM. For the same compound, the TGI (IGROV1) was 28.0 µM, the TGI (MOLT-4 [2]) was 8.95 µM and the TGI (HCT-15) was 33.0 µM. For the same compound, the GI50 (HCT-15) was 16.6 µM, the CC50 (HCT-15) was 65.7 µM and the GI50 (SF-295) was 18 µM. It also gave a CC50 (SF-295) of 77.1 µM, a TGI (SF-295) of 37.3 µM and a TGI (CCRF-CEM; CCRF-CEM (Leukemia), SRB) of 35.3 µM. The GI50 (CCRF-CEM; Homo sapiens, CCRF-CEM) was 4.42 µM, the CC50 (CCRF-CEM; Homo sapiens, CCRF-CEM, read-out: LC50) was over 100 µM and the GI50 (SK-MEL-2 [3]) was 19 µM. It also gave a CC50 (SK-MEL-2 [3]) of 69.8 µM, a TGI (HL-60(TB)) of 23.3 µM and a GI50 (MDA-MB-435) of 20.3 µM. The CC50 (MDA-MB-435) was 86.3 µM, the TGI (MDA-MB-435) was 41.9 µM and the GI50 (SF-268) was 17 µM. The CC50 (SF-268) was over 100 µM, the TGI (SF-268) was 41.3 µM and the GI50 (MOLT-4 [4]) was 3200 nM. The CC50 (MOLT-4 [4]) was 52.5 µM, the GI50 (60 tumor cell lines; [7]) was 18000 nM and the CC50 (60 tumor cell lines) was 81.7 µM. For the same compound, the “60 lines MG_MID, TGI” value (60 tumor cell lines) was 43.1 µM, the GI50 (U251) was 8.03 µM and the CC50 (U251) was 65.8 µM. For the same compound, the GI50 (HCT-116) was 2730 nM, the CC50 (HCT-116) was 23.3 µM and the GI50 (SR) was 3.67 µM. It also gave a CC50 (SR) of over 100 µM, a TGI (HOP-62 [5]) of 39.7 µM and a TGI (T-47D) of 65.3 µM. The TGI (SK-MEL-2 [6]) was 36.4 µM.
`O=C(O)CCN1C(=O)/C(=C/C(Cl)=C/c2ccc([N+](=O)[O-])cc2)SC1=S` [Compound 2h, 3-{5-[(Z,2Z)-2-Chloro-3-(4-nitrophenyl)-2-propenylidene]-4-oxo-2-thioxothiazolidin-3-yl}propanoic acid] was tested, and the GI50 (A549/ATCC) was 1.76 µM, the CC50 (A549/ATCC) was over 100 µM and the GI50 (RPMI-8226) was 138 nM. The CC50 (RPMI-8226) was over 100 µM, the GI50 (SNB-19) was 0.658 µM and the CC50 (SNB-19) was 83.7 µM. For the same compound, the TGI (SNB-19) was 26.3 µM, the GI50 (HOP-62 [1]) was 6.54 µM and the CC50 (HOP-62 [1]) was 52.8 µM. It also gave a GI50 (MALME-3M) of 9.7 µM, a CC50 (MALME-3M) of over 100 µM and a TGI (MALME-3M) of 61.9 µM. The TGI (DU-145) was 3.48 µM, the GI50 (IGROV1) was 0.794 µM and the CC50 (IGROV1) was 43.1 µM. For the same compound, the TGI (IGROV1) was 3.68 µM, the “TI (Therapeutic Index)” value (MOLT-4 [2]; GI50 (normal blood lymphocyte)/GI50 (MOLT-4)) was 3408.75 and the TGI (MOLT-4 [2]) was 19.7 µM. It also gave a GI50 (OVCAR-4; Homo sapiens, OVCAR-4, 48 h) of 2660 nM, a CC50 (OVCAR-4; Homo sapiens, OVCAR-4, 48 h, read-out: LC50) of 56.2 µM and a TGI (OVCAR-4; OVCAR-4 (Ovarian Cancer), 48 h, SRB) of 14.9 µM. For the same compound, the TGI (HCT-15) was 2.96 µM, the GI50 (HCT-15) was 0.23 µM and the CC50 (HCT-15) was over 100 µM. It also gave a GI50 (SF-295) of 3.36 µM, a CC50 (SF-295) of over 100 µM and a TGI (SF-295) of 21.6 µM. For the same compound, the GI50 (SK-MEL-2 [3]) was 0.802 µM, the CC50 (SK-MEL-2 [3]) was 65.1 µM and the “TI (Therapeutic Index)” value (HL-60(TB); GI50 (normal blood lymphocyte)/GI50 (HL-60(TB))) was 157.18. The TGI (HL-60(TB)) was 1.87 µM, the GI50 (MDA-MB-435) was 1.25 µM and the CC50 (MDA-MB-435) was 29.3 µM. For the same compound, the TGI (MDA-MB-435) was 4.12 µM, the GI50 (SF-268) was 2.12 µM and the CC50 (SF-268) was over 100 µM. The TGI (SF-268) was 9.74 µM, the GI50 (MOLT-4 [4]) was 16 nM and the CC50 (MOLT-4 [4]) was over 100 µM. For the same compound, the GI50 (60 tumor cell lines; [7]) was 1570 nM, the CC50 (60 tumor cell lines) was 65 µM and the GI50 (60 tumor cell lines; read-out: GI50 concentration range) was 10 to 20 nM. For the same compound, the “60 lines MG_MID, TGI” value (60 tumor cell lines) was 13.3 µM, the GI50 (U251) was 0.149 µM and the CC50 (U251) was over 100 µM. For the same compound, the GI50 (HCT-116) was 270 nM, the CC50 (HCT-116) was over 100 µM and the GI50 (SR) was under 0.01 µM. For the same compound, the CC50 (SR) was over 100 µM, the TGI (HOP-62 [5]) was 19.9 µM and the TGI (T-47D) was over 100 µM. The TGI (SK-MEL-2 [6]) was 4.93 µM.
